Experimental data: patent US20080076824A1, “Compounds That Inhibit Replication Of Human Immunodeficiency Virus” (priority 2004, published 2008)
Counter-ions that a name gives are not always drawn. Like-named read-outs stand apart in the source and are kept apart here. Residues, ends and D or L forms follow the SMILES beside them.

Key:
human PBMC = experiment: Mitogenic activity assay, [3H]dThd incorporation in human PBMC with or without PHA; format: cell-based; conditions: concentrations up to 200 μg/ml, absence of PHA
Experimental: The mitogenic activity assay was conducted as follows. Human PBMC were isolated from buffy coats and brought in RPMI-1640 cell culture medium supplemented with 10% FCS and 2 mM L-glutamine. The cell cultures were exposed to several concentrations of the test compounds for 3 days in the absence or presence of PHA (phytohemagglutinin) (Murex Biotech Ltd., Dartford, UK) at 2 μg/ml. Subsequently, 0.25 μCi [CH3^−3H]dThd was added and, after 20 hr incubation at 37° C., the cells were precipitated in the presence of 10% TCA and the precipitate was washed twice with 10% TCA, twice with 5% TCA and once with 70% ethanol. The precipitate, containing [^3H]DNA, was then examined for radioactivity in a liquid scintillation counter.

HIV-1 (IIIB) = experiment: microbe, parasite or virus in culture; conditions: Human immunodeficiency virus 1, IIIB, CCRF-CEM
[1] = Cytotoxicity / cell proliferation in CEM cells; conditions: human
CEM cells = experiment: Cytotoxicity / cell proliferation in CEM cells
[2] = test system: HIV-1 laboratory strains and clinical isolates; conditions: wide variety of HIV-1 laboratory strains and clinical isolates; cited from earlier work
[3] = Conversion of G-NH2 to Metabolite X in 10% pig serum with and without reducing agents; format: in vitro ADME; conditions: absence of GTT, NAC and DTT
Experimental: In another set of experiments, the conversion of GNH2 to modified glycinamide (Metabolite X) in pig serum (10%) was monitored over time in the presence and absence of differing concentrations (e.g., 40 mM, 10 mM, 4 mM) of reducing agents (glutathione (GTT), N-acetyl cysteine (NAC), and dithiothreitol (DTT)). […] See Han et al., Bull. Korean. Chem. Soc., 17, 659-661 (1996). In the absence of GTT, NAC and DTT, almost 100% coversion to Metabolite X was seen.

With `NC(=O)C(N)O` (stereo not drawn) [AlphaHGA, α-Hydroxy-glycinamide hydrochloride] as the compound, how does the “mitogenic activity against human PBMCs” value (human PBMC) read?
The value was “non-mitogenic”.

What about the EC50 (HIV-1 (IIIB); read-out: EC50 (CEM) HIV-1 (IIIB)) of the same compound?
The EC50 was 40 ± 8.2 µM.

What about the EC50 (HIV-1 (IIIB); read-out: EC50 (CEM) HIV-1(IIIB)) of the same compound?
Its EC50 is 43 ± 5.8 µM.

For `NCC(=O)N1CCC[C@H]1C(=O)NCC(N)=O` [GPG-NH2, glycylprolylglycinamide] (H-Gly-Pro-Gly-NH2), which EC50 [1] is on record?
Its EC50 is over 2000 µM.

What about the “no cytotoxicity at concentrations as high as” value (CEM cells) of the same compound?
Its value is 1500 to 2000 µM.

And the “concentration range blocking HIV-1” value [2]?
The value was 2 to 40 µM.

Which “conversion to Metabolite X” value [3] does the source give for `NCC(N)=O` [G-NH2, glycinamide] here?
The value was about 100%.
